# Target: T1, GluR1 flip/stargazin (AMPA receptor) in CHO-K1/GluR1 flip/stargazin-expressing cells (Homo sapiens, UniProt P42261)
# T1 construct: expressed in transfected cells; host or cells: CHO-K1
# Test: AMPA receptor function-enhancing activity of compound, using calcium influx as an index
# Format: cell-based
# Conditions: test compound final concentration 30 μM with 3 mM glutamic acid, 100% = 3 mM glutamic acid + 300 μM cyclothiazide
# Description: Human GluR1 flip cDNA was amplified by PCR method using forward primer […] (SEQ ID NO: 1) and reverse primer […] (SEQ ID NO: 2) artificially synthesized using human brain-derived cDNA (BD Bioscience) as a template. The amplified product was digested with restriction enzymes EcoRI, NotI (TAKARA SHUZO CO. LTD.) and incorporated into the same site of pcDNA3.1(+) (Invitrogen) to construct pcDNA3.1(+)/human GluR1 flip gene. Human stargazin cDNA was amplified by PCR method using forward primer […] (SEQ ID NO: 3) and reverse primer […] (SEQ ID NO: 4) artificially synthesized using human hippocampus cDNA as a template. The amplified product was digested with restriction enzymes XhoI, BamHI (TAKARA SHUZO CO. LTD.) and incorporated into the same site of pcDNA3.1(−) (Invitrogen) to construct pcDNA3.1 Zeo(−)/human stargazing gene.
# CHO-K1 cells passaged in a culture medium (Ham's F12 medium (Invitrogen) added with 10% inactivated fetal bovine serum (Morgate) and penicillin, streptomycin (Invitrogen)) were detached using 0.05% trypsin and 0.53 mM EDTA (Invitrogen) diluted with D-PBS(−). The detached cells were suspended in a culture medium, and recovered by centrifugation at 1,000 rpm. The recovered cells were re-suspended in D-PBS(−) and added into 0.4 cm electroporation cuvette (BioRad). pcDNA3.1(+)/human GluR1 flip gene (5 μg) and pcDNA3.1 Zeo(−)/human stargazin gene (15 μg) were added, and introduced into CHO-K1 cells under the conditions of […], […] and using Gene Pulser II (BioRad). The introduced cells were cultured overnight in a culture medium. The next day, using a selection medium (culture medium added with zeocin (Invitrogen) at 250 μg/mL), the cells were plated in a 96 well plate at 250 cells/well. The clones showing drug resistance were selected, and GluR1 flip/stargazin expression clones were selected by an assay method shown below using calcium influx as an index.
# CHO-K1/GluR1 flip/stargazin-expressing cells were plated on a 96 well black bottom transparent plate (coaster) at 3×10^4 cells/well, and cultured for 2 days in a CO2 incubator (SANYO ELECTRIC Co. Ltd.) at 37° C. The medium of the cell plate was removed, a calcium indicator (Calcium4 Assay Kit, Molecular Device) dissolved in a liquid obtained by adding 1.25 mM probenecid (Invitrogen) to an assay buffer (140 mM NaCl, 5 mM KCl, 10 mM Glucose, 2 mM CaCl2, 1 mM MgCl2, 10 mM HEPES, pH 7.4, 0.1% BSA (SIGMA)) was added at 100 μL/well, and left in a CO2 incubator at 37° C. for 1 hr. A cell plate was set on CellLux (PerkinElmer), a mixture (50 μL) of 9 mM glutamic acid (final concentration 3 mM) diluted with an assay buffer and a test compound (test compound final concentration 30 μM) was added, and variation in the amount of fluorescence was measured for 2 min. The variation of fluorescence level of a well added with final concentration 3 mM glutamic acid and 300 μM cyclothiazide (TOCRIS, prepared from 100 mM dimethyl sulfoxide solution) was defined as 100%, the variation of fluorescence level of a well containing final concentration 3 mM glutamic acid and 0.33% dimethyl sulfoxide was defined as 0%, and the activity of the m compound was calculated by the following formula. activity (%)=(X−C)/(T−C)×100 T: variation of fluorescence level of well added with final concentration 3 mM of glutamic acid and 300 μM cyclothiazide C: variation of fluorescence level of well added with final concentration 3 mM of glutamic acid alone X: variation of fluorescence level of well added with final concentration 3 mM of glutamic acid and 30 μM test compound
# T1 sequence (P42261 19-906 isoform P42261-2 limits assumed): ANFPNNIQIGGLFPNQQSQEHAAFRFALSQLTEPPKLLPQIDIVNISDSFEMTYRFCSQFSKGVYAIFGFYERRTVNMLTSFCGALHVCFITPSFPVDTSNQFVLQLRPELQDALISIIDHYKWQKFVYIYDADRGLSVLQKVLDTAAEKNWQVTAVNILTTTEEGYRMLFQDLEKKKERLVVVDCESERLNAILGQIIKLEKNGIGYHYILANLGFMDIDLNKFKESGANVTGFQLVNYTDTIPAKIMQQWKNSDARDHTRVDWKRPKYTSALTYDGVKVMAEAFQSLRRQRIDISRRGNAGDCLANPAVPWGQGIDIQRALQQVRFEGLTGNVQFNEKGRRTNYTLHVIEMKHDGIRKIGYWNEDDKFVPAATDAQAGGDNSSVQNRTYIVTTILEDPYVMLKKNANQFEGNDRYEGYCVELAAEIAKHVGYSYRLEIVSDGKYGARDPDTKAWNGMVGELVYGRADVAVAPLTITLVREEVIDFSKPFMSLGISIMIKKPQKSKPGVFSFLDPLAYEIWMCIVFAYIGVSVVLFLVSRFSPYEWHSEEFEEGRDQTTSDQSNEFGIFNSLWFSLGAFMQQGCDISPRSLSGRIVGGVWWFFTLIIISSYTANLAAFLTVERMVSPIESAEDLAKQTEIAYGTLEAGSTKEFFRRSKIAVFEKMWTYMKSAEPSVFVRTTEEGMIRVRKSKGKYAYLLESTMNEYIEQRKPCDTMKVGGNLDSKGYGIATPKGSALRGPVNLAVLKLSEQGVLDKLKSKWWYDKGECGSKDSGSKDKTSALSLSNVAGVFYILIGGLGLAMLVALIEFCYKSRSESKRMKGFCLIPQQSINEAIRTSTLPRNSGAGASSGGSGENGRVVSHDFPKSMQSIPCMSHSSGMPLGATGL
# T1 sequence (Q9Y698 whole entry partner): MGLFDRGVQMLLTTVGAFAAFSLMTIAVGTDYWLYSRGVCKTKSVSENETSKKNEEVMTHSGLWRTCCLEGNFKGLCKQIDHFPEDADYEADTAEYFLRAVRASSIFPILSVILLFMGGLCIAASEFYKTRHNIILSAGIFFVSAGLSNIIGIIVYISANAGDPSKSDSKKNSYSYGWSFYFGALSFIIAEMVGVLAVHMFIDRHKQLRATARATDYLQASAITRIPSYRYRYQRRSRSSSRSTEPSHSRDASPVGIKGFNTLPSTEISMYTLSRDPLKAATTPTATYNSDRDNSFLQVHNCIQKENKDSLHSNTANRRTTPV
row,SMILES,activity (%)
1,"CC(C)COc1ccc(C23CCC(CC2)N2CCS(=O)(=O)N=C23)cc1 [Example 28, 9-(4-isobutoxyphenyl)-3,4,6,7,8,9-hexahydro-6,9-ethanopyrido[2,1-c][1,2,4]thiadiazine 2,2-dioxide]",91
2,"O=S1(=O)CCN2C(=N1)C1(c3ccc(Oc4ncccn4)cc3)CCC2CC1 [Example 23, 9-(4-(pyrimidin-2-yloxy)phenyl)-3,4,6,7,8,9-hexahydro-6,9-ethanopyrido[2,1-c][1,2,4]thiadiazine 2,2-dioxide]",61
3,"O=S1(=O)CCN2C(=N1)C1(c3ccc(Oc4cc(C(F)(F)F)ccn4)cc3)CCC2CC1 [Example 15, 9-(4-((4-(trifluoromethyl)pyridin-2-yl)oxy)phenyl)-3,4,6,7,8,9-hexahydro-6,9-ethanopyrido[2,1-c][1,2,4]thiadiazine 2,2-dioxide]",92
4,"O=S1(=O)CCN2C(=N1)C1(c3ccc(Oc4ccc(Cl)cc4)cc3)CCC2CC1 [Example 1, 9-(4-(4-chlorophenoxy)phenyl)-3,4,6,7,8,9-hexahydro-6,9-ethanopyrido[2,1-c][1,2,4]thiadiazine 2,2-dioxide]",26
5,"O=S1(=O)CCN2C(=N1)C1(c3ccc(OCc4cccc(Cl)c4)cc3)CCC2CC1 [Example 30, 9-(4-((3-chlorobenzyl)oxy)phenyl)-3,4,6,7,8,9-hexahydro-6,9-ethanopyrido[2,1-c][1,2,4]thiadiazine 2,2-dioxide]",22
6,"N#Cc1cccc(Oc2ccc(C34CCC(CC3)N3CCS(=O)(=O)N=C34)cc2)c1 [Example 16, 3-(4-(2,2-dioxido-3,4,7,8-tetrahydro-6,9-ethanopyrido[2,1-c][1,2,4]thiadiazin-9(6H)-yl)phenoxy)benzonitrile]",87
7,"CC(F)(F)c1cccc(Oc2ccc(C34CCC(CC3)N3CCS(=O)(=O)N=C34)cc2)c1 [Example 2, 9-(4-(3-(1,1-difluoroethyl)phenoxy)phenyl)-3,4,6,7,8,9-hexahydro-6,9-ethanopyrido[2,1-c][1,2,4]thiadiazine 2,2-dioxide]",74

# Results, then the compound that gave them:
row,activity (%),SMILES
1,77,"O=S1(=O)CCN2CCCN(c3ccc(Oc4ccc(Cl)cc4)cc3)C2=N1 [Example 45, 9-(4-(4-chlorophenoxy)phenyl)-3,4,6,7,8,9-hexahydropyrimido[2,1-c][1,2,4]thiadiazine 2,2-dioxide]"
2,87,"O=S1(=O)CCN2C(=N1)C1(c3ccc(OCC4CCCO4)cc3)CCC2CC1 (stereo not shown) [Example 38, 9-(4-(tetahydrofuran-2-ylmethoxy)phenyl)-3,4,6,7,8,9-hexahydro-6,9-ethanopyrido[2,1-c][1,2,4]thiadiazine 2,2-dioxide]"
3,87,"Cc1ccc(Oc2ccc(C34CCC(CC3)N3CCS(=O)(=O)N=C34)cc2)cc1C#N [Example 47, 5-(4-(2,2-dioxido-3,4,7,8-tetrahydro-6,9-ethanopyrido[2,1-c][1,2,4]thiadiazin-9(6H)-yl)phenoxy)-2-methylbenzonitrile]"
